# In US8765791B2, “Method of treating cancer using a neuropeptide Y 5R (NP Y5R) antagonist” (University Health Network, priority 2008, dated 2014):
# Experiments:
# [1] = tested on: Breast cancer cells, MDA MB 468; test: breast cancer xenograft model (Example 11); type: in vivo, SCID mice; details: 30 mg/kg i.p. 3/week, approximately 4 weeks
# Protocol: Breast cancer cells, MDA MB 468 (12 million), were injected subcutaneously (s.c.) on the neck of SCID mice (CB17, female, 4-6 weeks old) (Charles River, Wilmington, Mass.). The mice were divided into four groups, 5 mice for each group. The treatments were started when the tumor volume reached about 100 mm^3, day 22 after tumor implantation. […] The tumor sizes were monitored every 3 or 4 days. […] (FIG. 12)
# [2] = tested on: Hodgkin Lymphoma cells, HD-MYZ; test: Hodgkin lymphoma xenograft model, MK0557 vs AVASTIN (Example 14); type: in vivo, NOD-SCID mice; details: for inhibition rate (tumor volume) / inhibition rate (tumor weight): versus vehicle
# Description: Hodgkin lymphoma cells, HD-MYZ, were implanted in NOD-SCID mice. […] Tumor volume and tumor growth were monitored during the experiment.
# [3] = tested on: Lung cancer cells, H358; test: lung cancer xenograft model (Example 9); type: in vivo, CB17-SCID mice
# Protocol: Lung cancer cells, H358, (1×10^6) were implanted in CB17-SCID mice. Ten days post-implantation, the mice were treated with MK0557 at 30 mg/kg or vehicle (15% of 0.5%) CMC (carboxymethylcelulose) (low viscosity) and 85% of 0.2% Tween80 in water) intraperitoneally daily for the first week followed by once every two days injections.
# [4] = tested on: Hodgkin Lymphoma cells, HD-MYZ; test: Hodgkin's lymphoma xenograft model, MK-0557 and 200464 (Example 16); type: in vivo
# Description: Hodgkin lymphoma cells, HD-MYZ, were implanted in NOD-SCID mice, female, 4-6 weeks from Jackson's Laboratory (Maine). The treatments were started day 6 after tumor implantation. The mice were divided to six groups, 4-5 mice from each group. The treatment started with a tumor volume of about 70 mm3 after tumor implantation.
# [5] = tested on: Hodgkin Lymphoma cells, HD-MYZ; test: Hodgkin lymphoma xenograft model (Example 5); type: in vivo, NOD-SCID mice; details: 30 mg/kg ip 2/week, to day 36
# Protocol: Hodgkin Lymphoma cells, HD-MYZ, (4 million) were injected subcutaneously on the left flank of 10-12 week old, female NOD-SCID mice (from The Jackson Lab, Cat#001303). […] The mice were sacrificed on day 36 when the experiment ended (FIG. 6).
# [6] = tested on: Ovarian cancer cells, Caov-3; test: ovarian cancer xenograft model (Example 10); type: in vivo, CB17-SCID mice
# Protocol: Ovarian cancer cells, Caov-3 (2 Million), were implanted in CB17-SCID mice. The mice were treated with MK0557 at 30 mg/kg or vehicle (15% of 0.5% of CMC (carboxymethylcellulose, low viscosity) and 85% of 0.2% Tween 80 in water) intraperitoneally daily for the first week followed by once every two days injections. Both the tumor growth and body weights were monitored for the duration of the experiment.
# [7] = tested on: Breast cancer cells, MDA MB 468; test: breast cancer xenograft model, MK0557 and 5-FU (Example 15); type: in vivo, CB17-SCID; details: MK0557 alone, 30 mg/kg ip. 3/week
# Protocol: Breast cancer cells, MDA MB 468, were injected into CB17-SCID. The treatments were started day 14 after tumor implantation. […] Tumor volume and tumor growth were monitored during the experiment.
# [8] = tested on: Ovarian cancer cells SKOV-3; test: ovarian cancer xenograft model (Example 13); type: in vivo, SCID mice; details: 30 mg/kg i.p. 3/week
# Description: Ovarian cancer cells SKOV-3 (5 millions) were implanted s.c. on the right flank of SCID mice (CB17, female, 4-6 weeks) (Charles River, Wilmington, Mass.). The mice were divided into four groups, 5 mice for each group. The treatments were started when the tumor volume reached at around 60 mm3, day 8 after tumor implantation. […] The tumor growth was monitored for the duration of the experiment. […] (FIG. 14)
# [9] = cited from earlier work
# [10] = target: T1, human NPY2R (Homo sapiens, UniProt P49146); details: at a concentration of 10 μM; cited from earlier work
# T1 sequence (P49146 1-381): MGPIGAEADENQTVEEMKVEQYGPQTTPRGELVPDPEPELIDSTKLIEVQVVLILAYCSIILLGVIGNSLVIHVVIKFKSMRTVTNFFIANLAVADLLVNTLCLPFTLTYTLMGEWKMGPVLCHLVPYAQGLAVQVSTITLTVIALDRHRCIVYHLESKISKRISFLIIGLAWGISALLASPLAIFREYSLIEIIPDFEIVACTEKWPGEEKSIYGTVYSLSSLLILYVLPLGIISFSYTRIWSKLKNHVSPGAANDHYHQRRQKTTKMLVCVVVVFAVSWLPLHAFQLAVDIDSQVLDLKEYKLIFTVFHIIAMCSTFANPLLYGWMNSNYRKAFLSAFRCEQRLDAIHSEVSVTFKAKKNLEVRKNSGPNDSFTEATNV
# [11] = tested on: MCF-7 cells; test: breast cancer xenograft model (Example 4); type: in vivo, SCID mice
# Protocol: MCF-7 cells were dissociated from flask surfaces then counted and spun down with a final concentration of 10×10^7 cells/ml produced. A total of 20 SCID mice, aged 6-8 weeks (CRL-CB17), were injected with 10×10^6 cells into lower mammary fat pads. After 3 weeks, all mice were inspected for tumor establishment and were measured for size (FIG. 5).
# For this study, a total of 15 mice were selected from a group of 20, which had similar tumor sizes (3×3). Subsequently, these 15 mice were divided into three groups of 5. The first group, the control group, received the vehicle only (20% ETOH and 80% PEG 400); the second group received a dosage of 30 mg/kg of MK0557; and the third group received a dosage of 15 mg/kg of MK0557.
# All groups were injected everyday via IP for the first five days, followed by injections every other day.
# [12] = 15 mg/kg i.p. every day×3 weeks
# [13] = 60 mg/kg p.o. every day×3 weeks
# [14] = 30 mg/kg intraperitoneally daily first week then once every two days
# [15] = group 4: MK 0557 30 mg/kg i.p. 3 times for each week, versus vehicle
smiles,measurement,setting,value
"O=C1O[C@]2(CC[C@H](C(=O)Nc3ccn(-c4ccccc4F)n3)CC2)c2cnccc21 [MK-0557, trans-N-[1-(2-fluorophenyl)-3-pyrazolyl]-3-oxospiro[6 azaisobenzofuran-1(3H), 1′-cyclohexane]-4′carboxamide]",tumor growth,[1],inhibited tumor growth
same,Mean Tumor Volume,[2]; [12],698.76±61.19 mm^3
same,Mean Tumor Weight,[2]; [12],0.40 ± 0.09 g
same,inhibition rate (tumor volume),[2]; [12],73.13%
same,inhibition rate (tumor weight),[2]; [12],84.19%
same,Mean Tumor Volume,[2]; [13],671.97±96.89 mm^3
same,Mean Tumor Weight,[2]; [13],0.43 ± 0.17 g
same,inhibition rate (tumor volume),[2]; [13],74.16%
same,inhibition rate (tumor weight),[2]; [13],83.0%
same,effect on mouse body weights,[3]; 30 mg/kg intraperitoneally,no obvious effect
same,tumor growth,[3]; [14],Tumor growth was inhibited
same,tolerability of the doses by the mice,"[4]; doses of Example 16, except group 6",well tolerated
same,Mean Tumor Volume,[4]; group 4: MK 0557 30 mg/kg i.p. 3 times for each week,435.54+/−72.17 mm^3
same,inhibition rate (tumor volume),[4]; [15],70.94%
same,inhibition rate (tumor weight),[4]; [15],67.30%
same,Mean Tumor Weight,[4]; group 4: MK 0557 30 gm/kg i.p. 3 times for each week,0.3048 ± 0.0696 g
same,tumor growth,[5],inhibition of tumor growth
same,change in body weight,[6]; 30 mg/kg intraperitoneally,not significantly affected
same,tumor growth,[6]; [14],inhibited tumor growth
same,Mean Tumor Volume,[7],392.73±80.63 mm^3
same,Mean Tumor Weight,[7],0.1582 ± 0.0345 g
same,inhibition rate (tumor volume),[7]; versus vehicle,38.85%
same,inhibition rate (tumor weight),[7]; versus vehicle,38.59%
same,tumor growth,[8],inhibited tumor growth
same,reduction in weight regain,[9]; following very-low-calorie-diet induced weight loss,did not result in a clinically meaningful reduction in weight regain
same,weight loss,"[9]; overweight or obese adults, 1 mg/day, 5 mg/day or 25 mg/day",did not induce clinically meaningful weight loss
same,binding to human NPY2R,[10],does not significantly bind
same,mice tumor free,"[11]; 30 mg/kg IP, third week",4 out of 5
same,tumor growth,"[11]; MCF-7 xenograft, 30 mg/kg and 15 mg/kg IP",dose-dependent inhibition of tumor growth
same,tumor size in treated groups,"[11]; second week, 30 mg/kg and 15 mg/kg IP",tumor shrinkage was noticed
